One block for each compound: values may come before it. No end group written: not given here.
Key:
[1] = peptide obtained by selective S-methylation of glucagon; cited from earlier work
[2] = stability of hpGRF control solution by HPLC; format: physicochemical; conditions: 0.5 mg hpGRF/ml in 0.01M HCl, stored at 22° C., over six hours
Protocol: One mg of hpGRF, obtained from Peninsula Laboratories, was solubilized in one ml of 0.01M hydrochloric acid ([…]). The solution was divided into four equal aliquots, and each was diluted to a concentration of 0.5 mg hpGRF/ml by the addition of 250 μl of 0.01M HCl. The first aliquot was removed and stored at 22° C. for the duration of the experimentation, to serve as a control. Analysis of the control and the extent of each respective chemical modification with hydrogen peroxide, cyanogen bromide, and methyl iodide, described hereinbelow, was performed by high performance liquid chromatography (HPLC). Quantitation was achieved by peak height measurement at 214 nm, of a symmetrical peak eluting at 10 minutes from a (0.46×25 cm) Zorbax C8, 150 Angstrom reverse phase column, at 45° C. in 0.1M ammonium phosphate buffer, pH 7.2/27.5% 1-propanol, v/v. […] Each modification reaction was quenched by a 5:1 dilution (hpGRF final concentration of 0.1 mg/ml) with addition of two ml of 0.1M methionine/0.01M HCl, pH 3.5. Samples were divided and stored at -20° C. and 4° C. prior to analysis of biological activity.

[3] = system: pituitary release of growth hormone; conditions: in vitro, cited from earlier work

Compound: glucagon
activity as % of the inherent activity of the native hormone [1]: less than 1%

change in HPLC peak elution time or height [2]: no change in peak elution time or height
Compound: CC[C@H](C)[C@H](NC(=O)[C@H](C)NC(=O)[C@H](CC(=O)O)NC(=O)[C@H](C)NC(=O)[C@@H](N)Cc1ccc(O)cc1)C(=O)N[C@@H](Cc1ccccc1)C(=O)N[C@H](C(=O)N[C@@H](CC(N)=O)C(=O)N[C@@H](CO)C(=O)N[C@@H](Cc1ccc(O)cc1)C(=O)N[C@@H](CCCNC(=N)N)C(=O)N[C@@H](CCCCN)C(=O)N[C@H](C(=O)N[C@@H](CC(C)C)C(=O)NCC(=O)N[C@@H](CCC(N)=O)C(=O)N[C@@H](CC(C)C)C(=O)N[C@@H](CO)C(=O)N[C@@H](C)C(=O)N[C@@H](CCCNC(=N)N)C(=O)N[C@@H](CCCCN)C(=O)N[C@@H](CC(C)C)C(=O)N[C@@H](CC(C)C)C(=O)N[C@@H](CCC(N)=O)C(=O)N[C@@H](CC(=O)O)C(=O)N[C@H](C(=O)N[C@@H](CCSC)C(=O)N[C@@H](CO)C(=O)N[C@@H](CCCNC(=N)N)C(=O)N[C@@H](CCC(N)=O)C(=O)N[C@@H](CCC(N)=O)C(=O)NCC(=O)N[C@@H](CCC(=O)O)C(=O)N[C@@H](CO)C(=O)N[C@@H](CC(N)=O)C(=O)N[C@@H](CCC(N)=O)C(=O)N[C@@H](CCC(=O)O)C(=O)N[C@@H](CCCNC(=N)N)C(=O)NCC(=O)N[C@@H](C)C(=O)N[C@@H](CCCNC(=N)N)C(=O)N[C@@H](C)C(=O)N[C@@H](CCCNC(=N)N)C(=O)N[C@@H](CC(C)C)C(N)=O)[C@@H](C)CC)C(C)C)[C@@H](C)O [hpGRF]

Compound: hpGRF(1-27)-NH2: shortened GRF analog prepared and tested by Rivier et al. (YADAIFTNSYRKVLGQLSARKLLQDIM-NH2; UniProt P01286 32-58, looked up, fragment)
intrinsic activity [3]: full intrinsic activity
potency as % of the potency of hpGRF(1-40)-OH ([3]; relative to hpGRF(1-40)-OH): 10-20%

From patent US4617149A, “Growth hormone release factor analogs” (Eli Lilly and Company, priority 1983, dated 1986)
